This experiment has as its system HCV replicon cells. In words: Cell-based HCV replicon assay (replicon RNA level by real time PCR, Taqman). The conditions noted are these: Hepatitis C virus, 72 h, HCV replicon cells, replicon RNA level by real time PCR, harvested day 3; read-out: EC90 (μM) range. The gist of the method:
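HCV replicon cells treated 3 days with 10 serial 2-fold compound dilutions (top 25 μM to 1 μM; 0.5% DMSO, 10% FBS). Replicon RNA quantified by multiplex Taqman RT-PCR (NS5B amplicon, GAPDH control); EC50 and EC90 = concentrations giving ΔCT of 1 and 3.2 over baseline.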
A general note: In antiviral work, replicon cells carry a viral genome segment that copies itself.
A word on the EC90: it is the concentration needed for an effect of 90%. As to `CC[C@@H](Nc1nc(C)c(-c2nc3c(C)nccc3s2)c(N[C@@H]2C[C@H](CO)[C@@H](O)[C@H]2O)n1)c1ccc(C)cc1` [Example 1363], the EC90 is below 0.5 µM. Then `COC[C@@H](Nc1nc(C)c(-c2nc3c(C)nccc3s2)c(N[C@@H]2C[C@H](CO)[C@@H](O)[C@H]2O)n1)c1ccccc1` [Example 1364], with 0.5 to 5 µM.

As for `Cc1nc(N[C@H](C)c2ccc(-n3cccn3)cc2)nc(N[C@@H]2C[C@H](CO)[C@@H](O)[C@H]2O)c1-c1nc2ccccc2s1` [Example 1365], the concentration for an effect of 90% (EC90) was below 0.5 µM.

Take `Cc1nc(NCC(F)(F)F)nc(N[C@@H]2C[C@H](O)[C@@H](O)[C@H]2O)c1-c1nc2ccccc2s1` [Example 1366]: the 90% effect concentration (EC90) fell in the range of 0.5 to 5 µM.

For `Cc1nc(NCC(F)(F)F)nc(N[C@@H]2C[C@H](CS(C)(=O)=O)[C@@H](O)[C@H]2O)c1-c1nc2cnccc2s1` [Example 1367], the EC90 was below 0.5 µM.

For the compound `Cc1ccc([C@@H](C)Nc2nc(C)c(-c3nc4cnccc4s3)c(N[C@@H]3C[C@H](CS(C)(=O)=O)[C@@H](O)[C@H]3O)n2)cc1` [Example 1368], the 90% effect concentration (EC90) is below 0.5 µM. Next, `CCCc1nccc2sc(-c3c(C)nc(NCC4CC4)nc3N[C@@H]3C[C@H](CO)[C@@H](O)[C@H]3O)nc12` [Example 1369]: below 0.5 µM; `Cc1nc(NCC2CC2)nc(N[C@@H]2C[C@H](CO)[C@@H](O)[C@H]2O)c1-c1nc2c(CC(C)C)nccc2s1` [Example 1370]: below 0.5 µM; `CCCc1nccc2sc(-c3c(C)nc(N[C@H](C)c4ccc(C)cc4)nc3N[C@@H]3C[C@H](CO)[C@@H](O)[C@H]3O)nc12` [Example 1371]: below 0.5 µM.

With `Cc1ccc([C@@H](C)Nc2nc(C)c(-c3nc4c(CC(C)C)nccc4s3)c(N[C@@H]3C[C@H](CO)[C@@H](O)[C@H]3O)n2)cc1` [Example 1372], the concentration for an effect of 90% (EC90) is below 0.5 µM. Then `Cc1nc(N[C@H](C)C2CC2)nc(N[C@@H]2C[C@H](CO)[C@@H](O)[C@H]2O)c1-c1nc2c(CC(C)C)nccc2s1` [Example 1373], with below 0.5 µM. Then `CCOc1cc2sc(-c3c(C)nc(NCC4CC4)nc3N[C@@H]3C[C@H](CO)[C@@H](O)[C@H]3O)nc2c(C)n1` [Example 1374], with 0.5 to 5 µM; and `CCOc1cc2sc(-c3c(C)nc(N[C@H](C)c4ccc(C)cc4)nc3N[C@@H]3C[C@H](CO)[C@@H](O)[C@H]3O)nc2c(C)n1` [Example 1375], with below 0.5 µM; and `CCOCCNc1nc(C)c(-c2nc3c(C)nc(OCC)cc3s2)c(N[C@@H]2C[C@H](CO)[C@@H](O)[C@H]2O)n1` [Example 1376], with below 0.5 µM. Next, `CCNC(=O)NC[C@H]1C[C@@H](Nc2nc(NCC(F)(F)F)nc(C)c2-c2nc3ccccc3s2)[C@H](O)[C@@H]1O` [Example 1377]: 0.5 to 5 µM; `Cc1nc(N(C)CC(F)(F)F)nc(N[C@@H]2C[C@H](CN(C)S(C)(=O)=O)[C@@H](O)[C@H]2O)c1-c1nc2ccccc2s1` [Example 1378]: above 5 µM.

As for `Cc1nc(NCC(F)(F)F)nc(N[C@@H]2C[C@H](CN(C)S(C)(=O)=O)[C@@H](O)[C@H]2O)c1-c1nc2ccccc2s1` [Example 1379], the concentration for an effect of 90% (EC90) is below 0.5 µM.

`CCCc1nccc2sc(-c3c(C)nc(N[C@H](C)C(F)(F)F)nc3N[C@@H]3C[C@H](CO)[C@@H](O)[C@H]3O)nc12` [Example 1380]: the EC90 is below 0.5 µM. Take `CCCc1nccc2sc(-c3c(C)nc(N[C@H](C)C4CC4)nc3N[C@@H]3C[C@H](CS(C)(=O)=O)[C@@H](O)[C@H]3O)nc12` [Example 1381]: the EC90 was below 0.5 µM. With `CCc1nccc2sc(-c3c(C)nc(N[C@H](C)C4CC4)nc3N[C@@H]3C[C@H](CS(C)(=O)=O)[C@@H](O)[C@H]3O)nc12` [Example 1382], the EC90 was below 0.5 µM.

Regarding `Cc1nc(NCC2CC2)nc(N[C@@H]2C[C@H](CO)[C@@H](O)C2(C)O)c1-c1nc2cnccc2s1` (stereo partly shown) [Example 1383], the concentration for an effect of 90% (EC90) was below 0.5 µM. Then `Cc1nc(N[C@H](C)C2CC2)nc(N[C@@H]2C[C@H](CO)[C@@H](O)C2(C)O)c1-c1nc2cnccc2s1` (stereo partly shown) [Example 1384], with below 0.5 µM; and `CCC1(O)[C@H](O)[C@@H](CO)C[C@H]1Nc1nc(NCC2CC2)nc(C)c1-c1nc2cnccc2s1` (stereo partly shown) [Example 1385], with below 0.5 µM; and `CCCc1nccc2sc(-c3c(C)nc(N[C@H](C)C4CC4)nc3N[C@@H]3C[C@H](Cn4ccnn4)[C@@H](O)[C@H]3O)nc12` [Example 1386], with below 0.5 µM. Take `CCCc1nccc2sc(-c3c(C)nc(N[C@H](C)C4CC4)nc3N[C@@H]3C[C@H](CNS(C)(=O)=O)[C@@H](O)[C@H]3O)nc12` [Example 1387]: the 90% effect concentration (EC90) was below 0.5 µM.

Regarding `CCCc1nccc2sc(-c3c(C)nc(N[C@H](C)C4CC4)nc3N[C@@H]3C[C@H](CNC(=O)OC)[C@@H](O)[C@H]3O)nc12` [Example 1388], the EC90 is below 0.5 µM. With `CCCc1nccc2sc(-c3c(C)nc(N[C@H](C)C4CC4)nc3N[C@@H]3C[C@H](CN(C)S(C)(=O)=O)[C@@H](O)[C@H]3O)nc12` [Example 1389], the EC90 was below 0.5 µM.

For the compound `COC(=O)N(C)C[C@H]1C[C@@H](Nc2nc(NCC(F)(F)F)nc(C)c2-c2nc3ccccc3s2)[C@H](O)[C@@H]1O` [Example 1390], the concentration for an effect of 90% (EC90) was 0.5 to 5 µM.

Turning to `CCN(C[C@H]1C[C@@H](Nc2nc(NCC(F)(F)F)nc(C)c2-c2nc3ccccc3s2)[C@H](O)[C@@H]1O)C(=O)OC` [Example 1391], the EC90 was below 0.5 µM. Next, `CCN(C[C@H]1C[C@@H](Nc2nc(NCC(F)(F)F)nc(C)c2-c2nc3ccccc3s2)[C@H](O)[C@@H]1O)S(C)(=O)=O` [Example 1392]: below 0.5 µM; `CCN(C[C@@H]1C[C@@H](Nc2nc(NCC(F)(F)F)nc(C)c2-c2nc3ccccc3s2)[C@H](O)[C@@H]1O)S(C)(=O)=O` [Example 1393]: 0.5 to 5 µM; `Cc1nc(NCC(F)(F)F)nc(N[C@@H]2C[C@@H](CN(CC3CC3)S(C)(=O)=O)[C@@H](O)[C@H]2O)c1-c1nc2ccccc2s1` [Example 1394]: 0.5 to 5 µM. Next, `Cc1nc(NCC(F)(F)F)nc(N[C@@H]2C[C@H](CN(CC3CC3)S(C)(=O)=O)[C@@H](O)[C@H]2O)c1-c1nc2ccccc2s1` [Example 1395]: below 0.5 µM; `Cc1nc(NCC(F)(F)F)nc(N[C@@H]2C[C@H](CN3CCCS3(=O)=O)[C@@H](O)[C@H]2O)c1-c1nc2ccccc2s1` [Example 1396]: below 0.5 µM.

Consider `Cc1nc(N[C@H](C)c2ccc(OC(F)(F)F)cc2)nc(N[C@@H]2C[C@H](CO)[C@@H](O)[C@@]2(C)O)c1-c1nc2cnccc2s1` [Example 1397], for which the concentration for an effect of 90% (EC90) is below 0.5 µM. Take `Cc1nc(NC2CC2)nc(N[C@@H]2C[C@H](C(C)O)[C@@H](O)[C@H]2O)c1-c1nc2c(C)nccc2s1` (stereo partly shown) [Example 1398]: the 90% effect concentration (EC90) was below 0.5 µM. Next, `Cc1nc(N[C@H](C)c2ccc(OC(F)(F)F)cc2)nc(N[C@@H]2C[C@H](C(C)O)[C@@H](O)[C@H]2O)c1-c1nc2c(C)nccc2s1` (stereo partly shown) [Example 1399]: below 0.5 µM.

Turning to `Cc1nc(NCC(F)(F)F)nc(N[C@@H]2C[C@H](CN3CCOC3=O)[C@@H](O)[C@H]2O)c1-c1nc2ccccc2s1` [Example 1400], the 90% effect concentration (EC90) is below 0.5 µM.

`Cc1nc(N[C@H](C)c2ccc(OC(F)(F)F)cc2)nc(N[C@@H]2C[C@H](CO)[C@@H](O)[C@H]2O)c1-c1nc2c(C3CC3)nccc2s1` [Example 1401]: the EC90 is below 0.5 µM. Next, `Cc1nc(NC2CC2)nc(N[C@@H]2C[C@H](CO)[C@@H](O)[C@H]2O)c1-c1nc2c(C3CC3)nccc2s1` [Example 1402]: below 0.5 µM. Next, `COc1cc(CNc2nc(C)c(-c3nc4ccccc4s3)c(N[C@H]3C[C@@H](CO)[C@H](O)[C@@H]3O)n2)cc(OC)c1` [Example 1501]: 0.5 to 5 µM; `Cc1nc(NCC(C)(C)C)nc(N[C@H]2C[C@@H](CO)[C@H](O)[C@@H]2O)c1-c1nc2ccccc2s1` [Example 1502]: above 5 µM.

As for `Cc1nc(NC2CCC2)nc(N[C@@H]2C[C@H](CO)[C@@H](O)[C@H]2O)c1-c1nc2ccccc2s1` [Example 1503], the EC90 lay within 0.5 to 5 µM. Next, `CCOCCNc1nc(C)c(-c2nc3c(CC)nccc3s2)c(N[C@@H]2C[C@H](CO)[C@@H](O)[C@H]2O)n1` [Example 1504]: below 0.5 µM; `CCc1nccc2sc(-c3c(C)nc(N[C@H](C)C4CC4)nc3N[C@@H]3C[C@H](CO)[C@@H](O)[C@H]3O)nc12` [Example 1505]: below 0.5 µM.

Regarding `CC(=O)NC[C@H]1C[C@@H](Nc2nc(NCC(F)(F)F)nc(C)c2-c2nc3ccccc3s2)[C@H](O)[C@@H]1O` [Example 1506], the concentration for an effect of 90% (EC90) fell in the range of 0.5 to 5 µM. Next, `Cc1nc(NCC(F)(F)F)nc(N[C@@H]2C[C@H](CNS(C)(=O)=O)[C@@H](O)[C@H]2O)c1-c1nc2ccccc2s1` [Example 1507]: below 0.5 µM; `Cc1nc(NCC(F)(F)F)nc(N[C@@H]2C[C@H](CNC(=O)CO)[C@@H](O)[C@H]2O)c1-c1nc2ccccc2s1` [Example 1508]: 0.5 to 5 µM.

Regarding `Cc1nc(NCC(F)(F)F)nc(N[C@@H]2C[C@H](CO)[C@@H](O)[C@H]2O)c1-c1nc2ccccc2o1` [Example 1509], the EC90 was below 0.5 µM.

Turning to `Cc1nc(NCC2CC2)nc(N)c1-c1nc2cnccc2s1` [Example 1510], the concentration for an effect of 90% (EC90) lay within 0.5 to 5 µM.

On to `Cc1ccc([C@@H](C)Nc2nc(C)c(-c3nc4cnccc4s3)c(N)n2)cc1` [Example 1511], for which the 90% effect concentration (EC90) was below 0.5 µM.

On to `Cc1nc(NCC(F)(F)F)nc(N[C@@H]2C[C@H](CNS(=O)(=O)CC(C)C)[C@@H](O)[C@H]2O)c1-c1nc2ccccc2s1` [Example 1512], for which the EC90 is 0.5 to 5 µM. Then `Cc1nc(NCC(F)(F)F)nc(N[C@@H]2C[C@H](CNS(=O)(=O)C3CC3)[C@@H](O)[C@H]2O)c1-c1nc2ccccc2s1` [Example 1513], with 0.5 to 5 µM; and `Cc1nc(NCC(F)(F)F)nc(NC2CCN(C(=O)OC(C)(C)C)CC2)c1-c1nc2ccccc2s1` [Example 1514], with above 5 µM; and `Cc1nc(NCC(F)(F)F)nc(NC2CCN(C(=O)OC(C)(C)C)C2)c1-c1nc2ccccc2s1` (stereo not shown) [Example 1515], with 0.5 to 5 µM.

Values taken from US8697694B2, “Substituted pyridine and pyrimidine derivatives and their use in treating viral infections” (priority 2008, dated 2014).
